Reference: patent publication US8318773B2, “Isoindoline compounds and methods of their use” (Celgene Corporation, priority 2008, dated 2012)

Compound | melting point [°C]
NC(=O)[C@H]1CC[C@@H](NC(=O)NCc2ccc3c(c2)CN(C2CCC(=O)NC2=O)C3=O)CC1 (stereo partly drawn) [Example 5.43, 4-{3-[2-(2,6-Dioxo-piperidin-3-yl)-1-oxo-2,3-dihydro-1H-isoindol-5-ylmethyl]-ureido}-cyclohexanecarboxylic acid amide] | 195 to 197
CC(=O)Nc1ccc(NC(=O)NCc2ccc3c(c2)CN(C2CCC(=O)NC2=O)C3=O)cc1 (stereo not drawn) [Example 5.13, N-(4-{3-[2-(2,6-Dioxo-piperidin-3-yl)-1-oxo-2,3-dihydro-1H-isoindol-5-ylmethyl]-ureido}-phenyl)-acetamide] | 265 to 267
Cc1ccc(NC(=N)NCc2ccc3c(c2)CN(C2CCC(=O)NC2=O)C3=O)cc1Cl.Cl (stereo not drawn) | > 400
O=C1CCC(N2Cc3cc(CNC(=O)Nc4ccc(Cl)c(-c5nc6ccccc6[nH]5)c4)ccc3C2=O)C(=O)N1 (stereo not drawn) [Example 5.32, 1-[3-(1H-Benzoimidazol-2-yl)-4-chloro-phenyl]-3-[2-(2,6-dioxo-piperidin-3-yl)-1-oxo-2,3-dihydro-1H-isoindol-5-ylmethyl]-urea] | 275 to 277
CC(NC(=O)NCc1ccc2c(c1)CN(C1CCC(=O)NC1=O)C2=O)c1ccc(Cl)c(Cl)c1 (stereo not drawn) [Example 5.60, 1-[1-(3,4-Dichloro-phenyl)-ethyl]-3-[2-(2,6-dioxo-piperidin-3-yl)-1-oxo-2,3-dihydro-1H-isoindol-5-ylmethyl]-urea] | 200 to 202
Cc1ccc(N/C(=N\C#N)NCc2ccc3c(c2)CN(C2CCC(=O)NC2=O)C3=O)cc1Cl (stereo not drawn) [Example 5.30, N″-(3-Chloro-4-methyl-phenyl)-N′-[2-(2,6-dioxo-piperidin-3-yl)-1-oxo-2,3-dihydro-1H-isoindol-5-ylmethyl]-N-cyano-guanidine] | 325 to 327
CC(C)(C)OC(=O)N1CCc2cc(NC(=O)NCc3ccc4c(c3)CN(C3CCC(=O)NC3=O)C4=O)ccc2C1 (stereo not drawn) [Example 5.46, 6-{3-[2-(2,6-Dioxo-piperidin-3-yl)-1-oxo-2,3-dihydro-1H-isoindol-5-ylmethyl]-ureido}-3,4-dihydro-1H-isoquinoline-2-carboxylic acid tert-butyl ester] | 230 to 232
O=C1CCC(N2Cc3cc(CNC(=O)Nc4ccc(-c5ncc[nH]5)cc4)ccc3C2=O)C(=O)N1 (stereo not drawn) [Example 5.31, 1-[2-(2,6-Dioxo-piperidin-3-yl)-1-oxo-2,3-dihydro-1H-isoindol-5-ylmethyl]-3-[4-(1H-imidazol-2-yl)-phenyl]-urea] | 190 to 192
COCCOCCOc1ccc(NC(=O)NCc2ccc3c(c2)CN(C2CCC(=O)NC2=O)C3=O)cc1Cl (stereo not drawn) [Example 5.61, 1-(3-Chloro-4-(2-(2-methoxyethoxy)ethoxy)phenyl)-3-((2-(2,6-dioxopiperidin-3-yl)-1-oxoisoindolin-5-yl)methyl)urea] | 188 to 190
